According to patent US4323517A, “Methoxy and methylsulfinylthiolesters” (Troponwerke GmbH & Co. KG, priority 1977, dated 1982):
“Also recorded” adds a separate entry of the source. Where two headings read alike, the source gives them in different places.

Key:
[1] = tested on: paw oedemas, caused by the administration of kaolin; assay: kaolin paw oedema, antiphlogistic action in rats; format: in vivo
From the text: The anti-inflammatory action was detected in paw oedemas, caused by the administration of kaolin, in rats.
In addition to the effects described for compound A, it could also be shown that the other derivatives (see Table 2) likewise have a powerful anti-inflammatory action. The minimum doses which still cause a clearly detectable effect on the paw oedema after the administration of kaolin are listed in Table 2.
Rats, kaolin oedema, intramuscularly, n = 10/dose group

[2] = tested on: concanavalin oedema; assay: concanavalin oedema; format: in vivo; settings: im; intramuscularly
From the text: (§1) Furthermore, A also has an action on other inflammation models. The ED50 values which follow are found (mg/kg; intramuscularly): formalin oedema 5.4, albumin oedema 6.3, yeast oedema 27.4, concanavalin oedema 3.4 and trypsin oedema 2.0.

[3] = tested on: formalin oedema; assay: formalin oedema; format: in vivo; settings: im; intramuscularly
From the text: as §1

[4] = in vivo; settings: rat
[5] = tested on: yeast oedema; assay: yeast oedema; format: in vivo; settings: im; intramuscularly
From the text: as §1

[6] = tested on: albumin oedema; assay: albumin oedema; format: in vivo; settings: im; intramuscularly
From the text: as §1

[7] = tested on: trypsin oedema; assay: trypsin oedema; format: in vivo; settings: im; intramuscularly
From the text: as §1

[8] = tested on: rats; settings: intramuscular
[9] = stomach ulcer (ulcerogenic action) in rats; settings: rat, in vivo
[10] = tested on: kaolin oedema; assay: comparison of the therapeutic range
[11] = comparison of the therapeutic range; settings: rat, in vivo
[12] = tested on: paw oedemas, caused by the administration of kaolin; assay: kaolin paw oedema, antiphlogistic action in rats; format: in vivo; settings: Rattus norvegicus, read-out: Kaolin oedema ED50
[13] = Rattus norvegicus, im, rats, kaolin oedema, intramuscularly, n = 10/dose group, read-out: Inhibition in % of the controls
[14] = Rattus norvegicus, im, rats, intramuscularly, n = 10/dose group, read-out: ED50 (kaolin oedema)
[15] = po, Therapeutic range LD50 / ED50 kaolin oedema, rats

Question: For `CC(C)CSC(=O)CCS(=O)(=O)CC(C)C` [(CH3)2 CHCH2 SO2 CH2 CH2 COSCH2 CH(CH3)2, S-Isobutyl 3-isobutylsulphonylpropionothioate], which inhibition in vivo at 12.5 mg/kg [1, 13] is on record?
Answer: 42%

Question: Which inhibition in vivo at 25 mg/kg [1, 13] does the source give for `CC(C)SCCC(=O)SC(C)C` [(CH3)2 CHSCH2 CH2 COSCH(CH3)2, S-Isopropyl 3-isopropylthiopropionothioate] here?
Answer: 63.2%

Question: For `CC(C)SC(=O)CC[S+]([O-])C(C)C` (centres unmarked) [(CH3)2 CHSOCH2 CH2 COSCH(CH3)2, S-Isopropyl 3-isopropylsulphinylpropionothioate], which inhibition in vivo at 12.5 mg/kg [1, 13] is on record?
Answer: 22.7%

Question: With `CC(C)(C)SCCC(=O)SC(C)(C)C` [(CH3)3 CSCH2 CH2 COSC(CH3)3, S-tert.-butyl 3-tert.-butylthiopropionothioate] as the compound, how does the inhibition in vivo at 12.5 mg/kg [1, 13] read?
Answer: 23.3%

Question: With `CSCCC(=O)SC` [A, S-methyl 3-methylthiopropionothioate] as the compound, how does the ED50 ([1]; Rattus norvegicus, im, rats, intramuscular, read-out: Kaolin oedema ED50) read?
Answer: 4.85 µmol/kg

Question: What about the “antiphlogistic (anti-inflammatory) action, in words” value ([1]; rat, in vivo) of the same compound?
Answer: very pronounced antiphlogistic action

Question: And the ED50 [2]?
Answer: 3.4 mg/kg

Question: What about the ED50 [3] of the same compound?
Answer: 5.4 mg/kg

Question: What about the LD50 ([4]; im) of the same compound?
Answer: 4590 µmol/kg

Question: And the ED50 [5]?
Answer: 27.4 mg/kg

Question: And the ED50 [6]?
Answer: 6.3 mg/kg

Question: And the ED50 [7]?
Answer: 2 mg/kg

Question: What about the LD50 [8] of the same compound?
Answer: 4,587 μmols/kg

Question: And the TD50 ([9]; im)?
Answer: 256 µmol/kg

Question: And the “therapeutic range, in words” value ([10]; rat, in vivo)?
Answer: wide therapeutic range; also recorded: unexpected favourable therapeutic range

Question: And the selectivity ratio [11]?
Answer: 52.9

Question: And the selectivity ratio ([11]; Therapeutic range LD50 / ED50 kaolin oedema, rats, intramuscular)?
Answer: 946

Question: With `CCSCCC(=O)SCC` [C2 H5 SCH2 CH2 COSC2 H5, S-Ethyl 3-ethylthiopropionothioate] as the compound, how does the ED50 [1, 14] read?
Answer: 3.75 mg/kg

Question: What about the inhibition in vivo at 2.5 mg/kg ([1]; Rattus norvegicus, im, rats, kaolin oedema, intramuscularly, dose 2.50 mg/kg, n = 10/dose group, read-out: Inhibition in % of the controls) of the same compound?
Answer: 58.2%

Question: For `CCCSCCC(=O)SCCC` [C3 H7 SCH2 CH2 COSC3 H7, S-Propyl 3-propylthiopropionothioate], which inhibition in vivo at 25 mg/kg [1, 13] is on record?
Answer: 68.5%

Question: Which inhibition in vivo at 100 mg/kg [1, 13] does the source give for `CCCSC(=O)CC[S+]([O-])CCC` (centres unmarked) [C3 H7 SOCH2 CH2 COSC3 H7, S-Propyl 3-propylsulphinylpropionothioate] here?
Answer: 73%

Question: With `CCCCSCCC(=O)SCCCC` [C4 H9 SCH2 CH2 COSC4 H9, S-Butyl 3-butylthiopropionothioate] as the compound, how does the inhibition in vivo at 50 mg/kg [1, 13] read?
Answer: 77.2%

Question: For `CCCCSC(=O)CC[S+]([O-])CCCC` (centres unmarked) [C4 H9 SOCH2 CH2 COSC4 H9, S-Butyl 3-butylsulphinylpropionothioate], which inhibition in vivo at 100 mg/kg [1, 13] is on record?
Answer: 73%

Question: With `C=C(C)C(=O)SC` [CH2 =C(CH3)COSCH3, S-methyl methacrylthioate] as the compound, how does the inhibition in vivo at 5 mg/kg ([1]; Rattus norvegicus, im, rats, kaolin oedema, intramuscularly, dose 5.00 mg/kg, n = 10/dose group, read-out: Inhibition in % of the controls) read?
Answer: 21.8%

Question: Which results are given for `C=CC(=O)SCC` [CH2 =CHCOSC2 H5, S-ethyl acrylthioate]?
Answer: ED50 [1, 14]: 1.5 mg/kg; inhibition in vivo at 0.32 mg/kg ([1]; Rattus norvegicus, im, rats, kaolin oedema, intramuscularly, dose 0.32 mg/kg, n = 10/dose group, read-out: Inhibition in % of the controls): 18.5%

Question: Which inhibition in vivo at 12.5 mg/kg [1, 13] does the source give for `CC=CC(=O)SC` [CH3 CH=CHCOSCH3, S-methyl crotonylthioate] here?
Answer: 16%

Question: For `CCOC(=O)CCSC` [CH3 SCH2 CH2 COOC2 H5, Ethyl 3-methylthiopropionate], which inhibition in vivo at 25 mg/kg [1, 13] is on record?
Answer: 16%

Question: With `CSCC(C)C(=O)SC` (centres unmarked) [CH3 SCH2 CH(CH3)COSCH3, S-methyl 3-methylthio-2-propylcarbonylthioate] as the compound, how does the ED50 [1, 14] read?
Answer: 4.5 mg/kg

Question: What about the inhibition in vivo at 0.65 mg/kg ([1]; Rattus norvegicus, im, rats, kaolin oedema, intramuscularly, dose 0.65 mg/kg, n = 10/dose group, read-out: Inhibition in % of the controls) of the same compound?
Answer: 16.6%

Question: For `CSC(=O)CC[S+](C)[O-]` (centres unmarked) [CH3 SOCH2 CH2 COSCH3, S-Methyl 3-methylsulphinylpropionothioate], which ED50 [1, 14] is on record?
Answer: 1.8 mg/kg

Question: And the inhibition in vivo at 3.12 mg/kg ([1]; Rattus norvegicus, im, rats, kaolin oedema, intramuscularly, dose 3.12 mg/kg, n = 10/dose group, read-out: Inhibition in % of the controls)?
Answer: 10.2%

Question: Which LD50 ([4]; po) does the source give for `O=C(O)c1ccccc1Nc1cccc(C(F)(F)F)c1` [Flufenamic acid] here?
Answer: 2040 µmol/kg

Question: What about the ED50 ([12]; rats, oral) of the same compound?
Answer: 36.2 µmol/kg

Question: What about the TD50 ([9]; po) of the same compound?
Answer: 55.1 µmol/kg

Question: What about the “Therapeutic range ED50 ulcer / ED50 kaolin oedema” value ([10]; rats, oral) of the same compound?
Answer: 1.52

Question: And the selectivity ratio [11, 15]?
Answer: 56.3

Question: Which inhibition in vivo at 20 mg/kg ([1]; Rattus norvegicus, im, rats, kaolin oedema, intramuscularly, dose 20.00 mg/kg, n = 10/dose group, read-out: Inhibition in % of the controls) does the source give for `O=C(O)CCS` [HSCH2 CH2 COOH, 3-mercaptopropionic acid] here?
Answer: 8.5%

Question: With `COc1ccc2c(c1)c(CC(=O)O)c(C)n2C(=O)c1ccc(Cl)cc1` [Indometacin] as the compound, how does the LD50 ([4]; po) read?
Answer: 68 µmol/kg

Question: And the ED50 ([12]; po)?
Answer: 2.9 µmol/kg

Question: And the TD50 ([9]; rats, oral, read-out: Stomach ulcer ED50)?
Answer: 11.1 µmol/kg

Question: What about the selectivity ratio ([11]; po, Therapeutic range ED50 ulcer / ED50 kaolin oedema, rats) of the same compound?
Answer: 3.81

Question: What about the selectivity ratio [11, 15] of the same compound?
Answer: 23.4

Question: Which ED50 ([12]; rats, oral) does the source give for `CCCCC1C(=O)N(c2ccccc2)N(c2ccccc2)C1=O` [Phenylbutazone] here?
Answer: 122 µmol/kg

Question: And the TD50 ([9]; po)?
Answer: 182 µmol/kg

Question: For `CC(C)CSCCC(=O)SCC(C)C` [S-Isobutyl 3-isobutylthiopropionothioate], which inhibition in vivo at 50 mg/kg [1, 13] is on record?
Answer: 77.2%

Question: With `CC(C)CSC(=O)CC[S+]([O-])CC(C)C` (centres unmarked) [S-isobutyl 3-isobutylsulphinylpropionothioate] as the compound, how does the inhibition in vivo at 12.5 mg/kg [1, 13] read?
Answer: 17.9%

Question: Which inhibition in vivo at 100 mg/kg [1, 13] does the source give for `CCC(C)SC(=O)CC[S+]([O-])C(C)CC` (centres unmarked) [S-sec.-Butyl 3-sec.-butylsulphinylpropionothioate] here?
Answer: 90.5%

Question: With `CCC(C)SC(=O)CCS(=O)(=O)C(C)CC` (centres unmarked) [S-sec.-Butyl 3-sec.-butylsulphonylpropionothioate] as the compound, how does the inhibition in vivo at 12.5 mg/kg [1, 13] read?
Answer: 33%

Question: For `CCC(C)SCCC(=O)SC(C)CC` (centres unmarked) [S-sec.-Butyl 3-sec.-butylthiopropionothioate], which inhibition in vivo at 50 mg/kg [1, 13] is on record?
Answer: 72%
